Entries after “also recorded” stand apart in the source; their conditions may differ.
Tested on: patients diagnosed with herpes simplex virus (seizures associated with herpes simplex virus)
Test: Open label, expanded-access program: seizure frequency recorded by caregivers in a diary, change relative to baseline
Format: in vivo, human
Set-up: Reduction in myoclonic seizures over the treatment period / Reduction in absence seizures over the treatment period / Reduction in focal seizures with impairment over the treatment period / Reduction in tonic-clonic seizures over the treatment period / Reduction in atonic seizures over the treatment period / Reduction in tonic seizures over the treatment period: concentration or dose not given beside the values; Seizure frequency, tonic-clonic / Seizure frequency, myoclonic / Seizure frequency, absence / Seizure frequency, focal with impairment / Seizure frequency, tonic / Seizure frequency, focal without impairment / Seizure frequency, atonic: unit not given here
Settings: for Seizure frequency, focal with impairment: baseline 14.0; for Seizure frequency, absence: baseline 28.0; for Seizure frequency, myoclonic: baseline 59.0; for Seizure frequency, tonic: baseline 24.0
Procedure: Subjects were required to be on one or more AEDs at stable doses for a minimum of two weeks prior to baseline and to have stable vagus nerve stimulation (VNS) settings and ketogenic diet ratios for a minimum of four weeks prior to baseline.
Modifications were made to concomitant AEDs as per clinical indication.
Seizure frequency, intensity, and duration were recorded by caregivers in a diary during a baseline period of at least 28 days. Changes in seizure frequency relative to baseline were calculated after at least 2 weeks and at defined timepoints of treatment.
Patients may be defined as responders if they had more than 50% reduction in seizure frequency compared to baseline. The percent change in seizure frequency was calculated as follows: […]
The percent change of seizure frequency may be calculated for any time interval where seizure number has been recorded. For the purpose of this example the percent change of seizure frequency for the end of the treatment period was calculated as follows: […]

[1] = Patient 4, treated for 24 weeks, vs baseline
[2] = Patient 5, 4 weeks, CBD 20.0 mg/kg/day
[3] = Patient 5, 8 weeks, CBD 25.0 mg/kg/day
[4] = Patient 5, 12 weeks, CBD 25.0 mg/kg/day
[5] = Patient 5, 16 weeks, CBD 25.0 mg/kg/day
[6] = Patient 5, 24 weeks, CBD 30.0 mg/kg/day
[7] = Patient 5, 36 weeks, CBD 40.0 mg/kg/day
[8] = Patient 5, 60 weeks, CBD 50.0 mg/kg/day
[9] = Patient 5, 72 weeks, CBD 50.0 mg/kg/day
[10] = Patient 5, 84 weeks, CBD 30.0 mg/kg/day
[11] = Patient 5, 96 weeks, CBD 45.0 mg/kg/day
[12] = Patient 5, 108 weeks, CBD 45.0 mg/kg/day
[13] = Patient 5, 120 weeks, CBD 45.0 mg/kg/day
[14] = Patient 5, 132 weeks, CBD 45.0 mg/kg/day
[15] = Patient 5, 144 weeks, CBD 45.0 mg/kg/day
[16] = Patient 5, treated for 144 weeks, vs baseline

C=C(C)[C@@H]1CCC(C)=C[C@H]1c1c(O)cc(CCCCC)cc1O [CBD, cannabidiol]
Seizure frequency, tonic-clonic (Patient 4, 16 weeks, CBD 15.0 mg/kg/day, baseline 10.0): 0.7 | Seizure frequency, focal with impairment (Patient 4, 16 weeks, CBD 15.0 mg/kg/day): 2.7 | Seizure frequency, atonic (Patient 4, 16 weeks, CBD 15.0 mg/kg/day, baseline 20.0): 14.0 | Seizure frequency, tonic-clonic (Patient 4, 24 weeks, CBD 15.0 mg/kg/day, baseline 10.0): 10.0 | Seizure frequency, focal with impairment (Patient 4, 24 weeks, CBD 15.0 mg/kg/day): 3.0 | Seizure frequency, atonic (Patient 4, 24 weeks, CBD 15.0 mg/kg/day, baseline 20.0): 13.0 | Reduction in atonic seizures over the treatment period [1]: 35% | Reduction in focal seizures with impairment over the treatment period [1]: 78.6% | Seizure frequency, absence [2]: 45.0 | Seizure frequency, myoclonic [2]: 75.0 | Seizure frequency, tonic-clonic (Patient 5, 4 weeks, CBD 20.0 mg/kg/day, baseline 71.0): 75.0 | Seizure frequency, atonic (Patient 5, 4 weeks, CBD 20.0 mg/kg/day, baseline 748.0): 965.0 | Seizure frequency, absence [3]: 0.0 | Seizure frequency, myoclonic [3]: 60.0 | Seizure frequency, tonic-clonic (Patient 5, 8 weeks, CBD 25.0 mg/kg/day, baseline 71.0): 7.0 | Seizure frequency, atonic (Patient 5, 8 weeks, CBD 25.0 mg/kg/day, baseline 748.0): 8.0 | Seizure frequency, absence [4]: 0.0 | Seizure frequency, myoclonic [4]: 1.0 | Seizure frequency, tonic-clonic (Patient 5, 12 weeks, CBD 25.0 mg/kg/day, baseline 71.0): 4.0 | Seizure frequency, atonic (Patient 5, 12 weeks, CBD 25.0 mg/kg/day, baseline 748.0): 25.0 | Seizure frequency, absence [5]: 0.0 | Seizure frequency, myoclonic [5]: 0.0 | Seizure frequency, tonic-clonic (Patient 5, 16 weeks, CBD 25.0 mg/kg/day, baseline 71.0): 10.0 | Seizure frequency, atonic (Patient 5, 16 weeks, CBD 25.0 mg/kg/day, baseline 748.0): 53.0 | Seizure frequency, absence [6]: 0.0 | Seizure frequency, myoclonic [6]: 68.0 | Seizure frequency, tonic-clonic (Patient 5, 24 weeks, CBD 30.0 mg/kg/day, baseline 71.0): 40.0 | Seizure frequency, absence [7]: 0.0 | Seizure frequency, myoclonic [7]: 129.0 | Seizure frequency, tonic-clonic (Patient 5, 36 weeks, CBD 40.0 mg/kg/day, baseline 71.0): 76.0 | Seizure frequency, atonic (Patient 5, 36 weeks, CBD 40.0 mg/kg/day, baseline 748.0): 44.0 | Seizure frequency, absence [8]: 0.0 | Seizure frequency, myoclonic [8]: 184.0 | Seizure frequency, tonic-clonic (Patient 5, 60 weeks, CBD 50.0 mg/kg/day, baseline 71.0): 137.0 | Seizure frequency, atonic (Patient 5, 60 weeks, CBD 50.0 mg/kg/day, baseline 748.0): 45.0 | Seizure frequency, absence [9]: 3.0 | Seizure frequency, myoclonic [9]: 141.0 | Seizure frequency, tonic-clonic (Patient 5, 72 weeks, CBD 50.0 mg/kg/day, baseline 71.0): 130.0 | Seizure frequency, atonic (Patient 5, 72 weeks, CBD 50.0 mg/kg/day, baseline 748.0): 46.3 | Seizure frequency, absence [10]: 5.7 | Seizure frequency, myoclonic [10]: 81.0 | Seizure frequency, tonic-clonic (Patient 5, 84 weeks, CBD 30.0 mg/kg/day, baseline 71.0): 77.0 | Seizure frequency, atonic (Patient 5, 84 weeks, CBD 30.0 mg/kg/day, baseline 748.0): 39.3 | Seizure frequency, absence [11]: 8.0 | Seizure frequency, myoclonic [11]: 41.0 | Seizure frequency, tonic-clonic (Patient 5, 96 weeks, CBD 45.0 mg/kg/day, baseline 71.0): 72.0 | Seizure frequency, atonic (Patient 5, 96 weeks, CBD 45.0 mg/kg/day, baseline 748.0): 97.0 | Seizure frequency, absence [12]: 11.0 | Seizure frequency, myoclonic [12]: 64.0 | Seizure frequency, tonic-clonic (Patient 5, 108 weeks, CBD 45.0 mg/kg/day, baseline 71.0): 53.0 | Seizure frequency, atonic (Patient 5, 108 weeks, CBD 45.0 mg/kg/day, baseline 748.0): 92.0 | Seizure frequency, absence [13]: 11.3 | Seizure frequency, myoclonic [13]: 53.0 | Seizure frequency, tonic-clonic (Patient 5, 120 weeks, CBD 45.0 mg/kg/day, baseline 71.0): 44.3 | Seizure frequency, atonic (Patient 5, 120 weeks, CBD 45.0 mg/kg/day, baseline 748.0): 72.3 | Seizure frequency, absence [14]: 18.8 | Seizure frequency, myoclonic [14]: 66.4 | Seizure frequency, tonic-clonic (Patient 5, 132 weeks, CBD 45.0 mg/kg/day, baseline 71.0): 40.4 | Seizure frequency, atonic (Patient 5, 132 weeks, CBD 45.0 mg/kg/day, baseline 748.0): 128.0 | Seizure frequency, absence [15]: 49.6 | Seizure frequency, myoclonic [15]: 78.0 | Seizure frequency, tonic-clonic (Patient 5, 144 weeks, CBD 45.0 mg/kg/day, baseline 71.0): 18.0 | Seizure frequency, atonic (Patient 5, 144 weeks, CBD 45.0 mg/kg/day, baseline 748.0): 78.4 | Reduction in atonic seizures over the treatment period [16]: 89.5% | Reduction in tonic-clonic seizures over the treatment period [16]: 76.4% | Seizure frequency, tonic (Patient 6, 2 weeks, CBD 5.0 mg/kg/day): 40.0 | Seizure frequency, tonic (Patient 6, 4 weeks, CBD 10.0 mg/kg/day): 20.0 | Seizure frequency, tonic (Patient 6, 8 weeks, CBD 20.0 mg/kg/day): 32.0 | Seizure frequency, tonic (Patient 6, 12 weeks, CBD 25.0 mg/kg/day): 12.0 | Seizure frequency, tonic (Patient 6, 24 weeks, CBD 25.0 mg/kg/day): 15.2 | Seizure frequency, tonic (Patient 6, 36 weeks, CBD 25.0 mg/kg/day): 15.2 | Seizure frequency, tonic (Patient 6, 48 weeks, CBD 25.0 mg/kg/day): 18.0 | Seizure frequency, tonic (Patient 6, 60 weeks, CBD 25.0 mg/kg/day): 19.2 | Reduction in tonic seizures over the treatment period (Patient 6, treated for 60 weeks, vs baseline): 20% | Reductions in seizures over period of treatment, overall (all six patients, tonic, tonic-clonic, atonic, myoclonic, absence and focal seizures with impairment): 20-100% | Benefit in patients with focal seizures with impairment (in words) (patients 1 and 4): significant benefit | Effect on seizure frequency (in words) (six patients, tonic, tonic-clonic, atonic, myoclonic, absence and focal seizures with impairment): effective in reducing the frequency; also recorded: significantly reduce the number of seizures; also recorded: significant reduction

Source: patent US20240033272A1, “USE OF C[…] THE TREATMENT OF SEIZURES ASSOCIATED WITH HERPES SIMPLEX VIRUS” (GW Research Limited, priority 2020, published 2024)
